We go through four compounds from patent US4025528A, “Thiazole derivatives of benzoic and phenylalkanoic acids” (Shionogi & Co., Ltd., priority 1973, dated 1977).

As a reminder, the LD50 is the dose expected to kill half of the subjects tested. A lower LD50 goes with a more toxic substance.

Structures are written as SMILES. Like-named read-outs stand apart in the source and are kept apart here.

Data set [1] deals with Wistar rat. Kind of data set: Foot-licking Method (formaldehyde). Type of data set: in vivo. Here is the method:
Thirty minutes after oral administration of a test drug in Wistar rat (180-200 g, female), the effect of the compound on foot-licking syndrome due to irritation by a subcutaneous injection of 0.05 ml of 3.75% formaldehyde into the plantar tissue of the hind-paw is observed for 50 minutes. The ED50 is calculated by the method of Litchfield and Wilcoxon.

Data set [2] concerns Wistar rats. Kind of data set: Anti-abscess Activity (carrageenin). It is filed as in vivo, Wistar rat. The settings on record: Rattus norvegicus, read-out: Anti-abscess ED (25%). Here is the method:
Carrageenin (2% aqueous solution, 0.5 ml) is subcutaneously injected into the back of Wistar rats (180-200 g, female) and at the same time one-half dose of a test compound is orally given, the other half given 3 hours later. The animals are sacrificed 24 hours after carrageenin and the abscess formed is isolated and weighed. The ED25 is calculated by the Bliss' method.

Data set [3] concerns Wistar rat. Kind of data set: Effect on Yeast-inflamed Foot. Type of data set: in vivo. The settings on record: 2 h, oral, pain threshold two hours later, ED 100%. Here is the method: 8. Effect on Yeast-inflamed Foot
A test compound is orally given Wistar rat (180-200 g, female) immediately before subcutaneous injection of 0.1 ml of 20% yeast suspension into the plantar tissue of the foot. Two hours later, the pain threshold is measured by comprissing the foot with a plunger and calculated by the method of Litchfield and Wilcoxon.

The test system of data set [4] is Wistar rat. Kind of data set: Anti-granuloma Activity (carrageenin filterpaper). It is filed as in vivo. The settings on record: 168 h. Here is the method:
3. Anti-granuloma Activity
Two circular pieces of filterpaper about 6 mm in diameter, soaking 90 mg of 5% carrageenin solution, are implanted subcutaneously in the abdominal skin of Wistar rat (180-200 g, female). A test drug is orally given once a day for 6 consecutive days. On the 7th day the animals are killed and the amount of granulation tissue deposited, the adrenals and the thymus are weighed. The ED25 is calculated by the Bliss' method.

Data set [5] relates to Wistar rat. Nature of the data set: Effect on Adjuvant Arthritis. Type of data set: in vivo. The settings on record: 120 h. The protocol:
5. Effect on Adjuvant Arthritis
A test compound is orally administered to the arthritic rat twice a day for 5 consecutive days. Five hours after the final medication the change in swelling volume of the arthritic foot is measured. The ED30 is calculated by the Bliss' method.

Data set [6] relates to Wistar rats. Nature of the data set: Anti-edema Activity (carrageenin foot edema). It is filed as in vivo, Wistar rat. The settings on record: Rattus norvegicus, read-out: Anti-edema ED (30%). The protocol: An aqueous solution of 1% carrageenin (0.05 ml) is used as phlogistic agent. After 30 minutes Wistar rats (180-200 g, female) are orally administered test compounds, the phalogistic agent is injected subcutaneously into the plantar parts of the foot of rats. The volume of swelling is measured 3 hours after carrageenin, and the anti-edema activity is determined by calculating the ratio of the edematous volume of medicated foot to that of non-medicated foot. […]
For orientation: The carrageenan paw model is a standard test of acute inflammation.

The test system of another data set is Wister rat. Kind of data set: Anti-pyretic Activity (yeast). Type of data set: in vivo. The settings on record: read-out: Anti-pyretic Activity, dose by which body temperature is reduced 0.5° C. The protocol: 11. Anti-pyretic Activity
A test compound is orally administered to Wister rat (180-200 g, female) 16 hours after an injection of 2 ml of 15% suspension of yeast into the subcutaneous tissue of the hip of the rat. The rectal temperature is measured every 1 hour for 5 hours. The effective dose is calculated by the Bliss' method.

Another data set concerns guinea-pig. Kind of data set: Anti-erythema Activity (ultraviolet light). It is filed as in vivo. The protocol:
4. Anti-erythema Activity
The hair on the back of guinea-pig (300-400 g, male and female) is removed on the day before experiment. Thirty minutes after oral administration of a test drug, 3 circular areas (8 mm in diameter each) on the back of the animal are exposed to ultraviolet light for 60 seconds. Anti-erythema activity is evaluated at 2 hours after irradiation. The ED50 is calculated by Up and Down method of Brownlee et al. [J. Am. Stat. Assoc.

The subject of data set [7] is Wistar rat. Kind of data set: Effect of Scald-inflamed Foot. It is filed as in vivo. The settings on record: 1.5 h, read-out: Scald-inflamed Foot ED (100%). Here is the method: 7. Effect of Scald-inflamed Foot
A test drug is administered orally 90 minutes after scalding and the analgesic activity is evaluated by compressing the foot with a plunger.

The subject of another data set is DS mice. Kind of data set: Acetic Acid Writhing Method. It is filed as in vivo. The settings on record: Mus musculus, read-out: Acetic Acid Writhing ED (50%). Here is the method: 6. Acetic Acid Writhing Method
DS mice (20-23 g, male) are treated with an intraperitoneal injection of 0.1 ml/10 g of 0.6% acetic acid 60 minutes after oral administration of a test drug. The number of times of writhing for 10 minutes is counted. The ED50 is calculated by the Bliss' method.
Background: In writhing tests, fewer writhes than in controls are read as antinociception.

A short description of data set [8]: in vivo. The settings on record: mouse, po.
Data set [9] in a line: in vivo. The settings on record: rat, po.
[10] abbreviates: oral, thirty minutes before formaldehyde, ED50, read-out: Footlicking ED (50%).
The mark [11] stands for this setting: oral, two half doses, 24 hours after carrageenin, ED25.
[12] abbreviates: oral once a day for 6 days, ED25, read-out: Anti-granuloma ED (25%).
Where [13] appears, read: oral twice a day for 5 days, ED30, read-out: Arthritis ED (30%).
The mark [14] stands for this setting: oral, swelling 3 hours after carrageenin, ED 30%.
[15] abbreviates: oral, 16 hours after yeast injection.
Where [16] appears, read: Cavia porcellus, light or radiation study, po, 2 h; read-out: Anti-erythema ED (50%).
The mark [17] stands for this setting: oral, 90 minutes after scalding, pain threshold, ED 100%.
[18] abbreviates: oral, 60 minutes before 0.6% acetic acid i.p., ED50.

Take `CCCCC1C(=O)N(c2ccccc2)N(c2ccccc2)C1=O` [Phenylbutazone, phenylbutazone]: the figures for the ED50 with Wistar rat [1] (setting [10]), in the data set with guinea-pig (setting [16]) and in the data set with DS mice (setting [18]) were 150 mg/kg, 26 mg/kg and 440 mg/kg, respectively. Further, the ED25 with Wistar rats [2] (setting [11]) worked out at 33 mg/kg; in the data set on Wistar rat [4] (setting [12]), 24 mg/kg. For the same compound, the ED100 in the data set on Wistar rat [3] was found to be 130 mg/kg; with Wistar rat [7] (setting [17]), 240 mg/kg. The ED30 in the data set with Wistar rat [5] (setting [13]) is 7.8 mg/kg; in the data set with Wistar rats [6] (setting [14]), 48 mg/kg. Besides, in the data set on Wister rat (setting [15]), the ED (0.5 degC reduction) is 3.8 mg/kg.
With `CC(C(=O)O)c1ccc(Oc2nccs2)cc1` (centres unmarked) [Example 48-156, 2-[4-(2-thiazolyloxy)phenyl]propionic acid], the ED50 was 175 mg/kg with Wistar rat [1] (setting [10]), 20 mg/kg in the data set with guinea-pig (setting [16]) and 20 mg/kg with DS mice (setting [18]). In addition, the ED25 in the data set with Wistar rats [2] (setting [11]) stood at 6.4 mg/kg; in the data set on Wistar rat [4] (setting [12]), 13 mg/kg. Besides, the ED100 in the data set on Wistar rat [3] turned out to be 28 mg/kg; in the data set with Wistar rat [7] (setting [17]), 77 mg/kg. Also, the results for the ED30 in the data set on Wistar rat [5] (setting [13]) and with Wistar rats [6] (setting [14]) were 4.2 mg/kg and 3.8 mg/kg, respectively. Moreover, the ED (0.5 degC reduction) with Wister rat (setting [15]) turned out to be 4 mg/kg.
As for `Cc1nc(Oc2ccccc2)sc1C(C)C(=O)O` (centres unmarked) [Example 48-140, calcium 2-(2-phenoxy-4-methyl-5-thiazolyl)propionate], the ED50 in the data set with Wistar rat [1] (setting [10]) worked out at 130 mg/kg; in the data set with guinea-pig (setting [16]) it was 27 mg/kg; in the data set on DS mice (setting [18]) it was 180 mg/kg. The ED25 in the data set with Wistar rats [2] (setting [11]) came out at 60 mg/kg; in the data set on Wistar rat [4] (setting [12]), 230 mg/kg. Besides, the ED100 with Wistar rat [3] is 110 mg/kg; in the data set on Wistar rat [7] (setting [17]) it was more than 500 mg/kg. The ED30 in the data set on Wistar rat [5] (setting [13]) was determined as 20 mg/kg; with Wistar rats [6] (setting [14]) it was 14 mg/kg. For the same compound, the LD50 at 72 h in the data set “in vivo [8]” came to 1190 mg/kg; in the data set “in vivo [9]”, 1200 mg/kg. In the data set on Wister rat (setting [15]), the ED (0.5 degC reduction) was found to be 23 mg/kg.
For `CC(=O)Oc1ccccc1C(=O)O` [Acetylsalicylic Acid, acetylsalicylic acid], the ED50 was determined as 580 mg/kg with Wistar rat [1] (po, read-out: Footlicking ED (50%)); 79 mg/kg in the data set with guinea-pig (Cavia porcellus, light or radiation study, po, 2 h, read-out: Anti-erythema ED (50%)); 180 mg/kg with DS mice (po). Moreover, the ED25 with Wistar rats [2] (po, 24 h) is 175 mg/kg; in the data set on Wistar rat [4] (po, read-out: Anti-granuloma ED (25%)), more than 500 mg/kg. Also, the ED100 in the data set with Wistar rat [3] stood at 250 mg/kg; in the data set with Wistar rat [7] (po), 260 mg/kg. Moreover, the ED30 was 100 mg/kg with Wistar rat [5] (po, read-out: Arthritis ED (30%)) and 48 mg/kg in the data set on Wistar rats [6] (po, 3 h). Further, the figures for the LD50 at 72 h in the data set “in vivo [8]” and in “in vivo [9]” were 2000 mg/kg and 2400 mg/kg, respectively. Also, in the data set on Wister rat (po, 16 h), the ED (0.5 degC reduction) was determined as 14 mg/kg.
